This note sets out measurements from ChEMBL document CHEMBL3880421, “Indazole compounds and pharmaceutical compositions for inhibiting protein kinases, and methods for their use” (2003).

This assay in a line: Antiproliferative activity against VEGF-stimulated HUVEC cells assessed as reduction in cell viability at 10 nM preincubated for 1 hr followed by addition of VEGF measured after 72 hrs by MTT assay. Format: functional. As to conditions: Homo sapiens. For orientation: Tetrazolium dyes change colour on reduction, which living cells bring about.
Broadly, the inhibition is the relative decrease from the control value, in per cent. For the molecule `O=C(c1cccc(NC(=O)C2C[C@H]3C=C[C@H]2C3)c1)c1ccc2c(/C=C/c3ccccc3)n[nH]c2c1` (some centres not stated), the inhibition at 0.01 µM was 44%. Under `O=C(CC1=CCCCC1)Nc1cccc(Oc2ccc3c(/C=C/c4ccccc4)n[nH]c3c2)c1` stands 92%; under `CN1CCC=C(C(=O)Nc2cccc(Nc3ccc4c(/C=C/c5ccccc5)n[nH]c4c3)c2)C1`, 0%; under `COc1cccc(/C=C/C(=O)Nc2cccc(Oc3ccc4c(/C=C/c5ccccc5)n[nH]c4c3)c2)c1`, 64%. Next, `CN(C)C(=S)SCC(=O)Nc1cccc(Nc2ccc3c(/C=C/c4ccccc4)n[nH]c3c2)c1`: 32%; `O=C(CC1CC2CCC1C2)Nc1cccc(C(=O)c2ccc3c(/C=C/c4ccccc4)n[nH]c3c2)c1` (configuration not stated): 75%.

Regarding `O=C(Nc1cccc(Nc2ccc3c(/C=C/c4ccccc4)n[nH]c3c2)c1)C1CCOC1` (configuration not stated), the inhibition at 0.01 µM was -3%. Next, `O=C(Nc1cccc(Nc2ccc3c(/C=C/c4ccccc4)n[nH]c3c2)c1)C1C[C@H]2C[C@@H]1CCC2O` (some centres not stated): -9%. With `COc1ccccc1/C=C/C(=O)Nc1cccc(Nc2ccc3c(/C=C/c4ccccc4)n[nH]c3c2)c1`, the inhibition at 0.01 µM turned out to be 10%. As to `COc1ccccc1/C=C/C(=O)Nc1cccc(Oc2ccc3c(/C=C/c4ccccc4)n[nH]c3c2)c1`, the inhibition at 0.01 µM is 17%. Regarding `O=C(Nc1cccc(Oc2ccc3c(/C=C/c4ccccc4)n[nH]c3c2)c1)C(=O)C1=CCCCC1`, the inhibition at 0.01 µM was 57%. Next, `O=C1CCC(C(=O)Nc2cccc(C(=O)c3ccc4c(/C=C/c5ccccc5)n[nH]c4c3)c2)CC1`: 10%; `CCO/C(C)=C/C(=O)Nc1cccc(Nc2ccc3c(/C=C/c4ccccc4)n[nH]c3c2)c1`: 85%; `Cc1nc(S)sc1CC(=O)Nc1cccc(C(=O)c2ccc3c(/C=C/c4ccccc4)n[nH]c3c2)c1`: 24%. Next, `Cc1cc(C(=O)Nc2cccc(Oc3ccc4c(/C=C/c5ccccc5)n[nH]c4c3)c2)n[nH]1`: 150%; `COc1cccc(CC(=O)Nc2cccc(Nc3ccc4c(/C=C/c5ccccc5)n[nH]c4c3)c2)c1`: 34%; `C[C@@H](CC(=O)Nc1cccc(Nc2ccc3c(/C=C/c4ccccc4)n[nH]c3c2)c1)c1ccccc1`: 27%. As to `CC(C)=CC1C(C(=O)Nc2cccc(Oc3ccc4c(/C=C/c5ccccc5)n[nH]c4c3)c2)C1(C)C` (configuration not stated), the inhibition at 0.01 µM was found to be 24%.

Regarding `O=C(Nc1cccc(Oc2ccc3c(/C=C/c4ccccc4)n[nH]c3c2)c1)C(O)c1ccccc1` (configuration not stated), the inhibition at 0.01 µM turned out to be 56%. `CCNc1ccccc1C(=O)Nc1cccc(Nc2ccc3c(/C=C/c4ccccc4)n[nH]c3c2)c1`: the inhibition at 0.01 µM amounted to 71%. As to `COc1ccc(C#N)c(C(=O)Nc2cccc(C(=O)c3ccc4c(/C=C/c5ccccc5)n[nH]c4c3)c2)c1`, the inhibition at 0.01 µM is -20%. For the molecule `O=C(Nc1cccc(Nc2ccc3c(/C=C/c4ccccc4)n[nH]c3c2)c1)c1cc(=O)[nH]c(=O)[nH]1`, the inhibition at 0.01 µM came out at 12%. Under `CC1(C)C(C(=O)Nc2cccc(Nc3ccc4c(/C=C/c5ccccc5)n[nH]c4c3)c2)C1(C)C` stands 25%; under `CC(C)c1ccccc1C(=O)Nc1cccc(Oc2ccc3c(/C=C/c4ccccc4)n[nH]c3c2)c1`, 35%. As to `O=C(Cc1cc(F)cc(F)c1)Nc1cccc(Nc2ccc3c(/C=C/c4ccccc4)n[nH]c3c2)c1`, the inhibition at 0.01 µM is 77%.

For the molecule `CC(C)=CC1C(C(=O)Nc2cccc(C(=O)c3ccc4c(/C=C/c5ccccc5)n[nH]c4c3)c2)C1(C)C` (configuration not stated), the inhibition at 0.01 µM was determined as 3%. Next, `O=C(CCN1CCCCC1)Nc1cccc(Nc2ccc3c(/C=C/c4ccccc4)n[nH]c3c2)c1`: 30%. Next, `Cc1ccc(C2(C(=O)Nc3cccc(Nc4ccc5c(/C=C/c6ccccc6)n[nH]c5c4)c3)CC2)cc1`: 2%; `O=C(c1cccc(NC(=O)C2CCCO2)c1)c1ccc2c(/C=C/c3ccccc3)n[nH]c2c1` (configuration not stated): 18%; `CN(C)CCCC(=O)Nc1cccc(Oc2ccc3c(/C=C/c4ccccc4)n[nH]c3c2)c1`: 96%. `O=C(Nc1cccc(Nc2ccc3c(/C=C/c4ccccc4)n[nH]c3c2)c1)[C@H]1CCC[C@H]1O`: the inhibition at 0.01 µM is -4%. Under `O=C(CCC(=O)N1CCCC1)Nc1cccc(C(=O)c2ccc3c(/C=C/c4ccccc4)n[nH]c3c2)c1` stands 27%; under `COc1ccc(C#N)c(C(=O)Nc2cccc(Oc3ccc4c(/C=C/c5ccccc5)n[nH]c4c3)c2)c1`, 18%. Next, `O=C(CC1CC2CCC1C2)Nc1cccc(Oc2ccc3c(/C=C/c4ccccc4)n[nH]c3c2)c1` (configuration not stated): 78%. Next, `O=C(CCC(=O)N1CCCC1)Nc1cccc(Oc2ccc3c(/C=C/c4ccccc4)n[nH]c3c2)c1`: 48%; `COc1cccc(/C=C/C(=O)Nc2cccc(Nc3ccc4c(/C=C/c5ccccc5)n[nH]c4c3)c2)c1`: 30%; `Cc1nc(S)sc1CC(=O)Nc1cccc(Oc2ccc3c(/C=C/c4ccccc4)n[nH]c3c2)c1`: 45%. Turning to `CC(C)=NOC(C)C(=O)Nc1cccc(Oc2ccc3c(/C=C/c4ccccc4)n[nH]c3c2)c1` (configuration not stated), the inhibition at 0.01 µM was determined as 80%. As to `CN1CSCCC1C(=O)Nc1cccc(Nc2ccc3c(/C=C/c4ccccc4)n[nH]c3c2)c1` (configuration not stated), the inhibition at 0.01 µM stood at 0%.

On to `Cc1cc(C(=O)Nc2cccc(Nc3ccc4c(/C=C/c5ccccc5)n[nH]c4c3)c2)no1`, for which the inhibition at 0.01 µM was 6%.

As to `CN(C)C(=S)SCC(=O)Nc1cccc(Oc2ccc3c(/C=C/c4ccccc4)n[nH]c3c2)c1`, the inhibition at 0.01 µM stood at 70%. For the molecule `O=C(Cc1cccnc1)Nc1cccc(C(=O)c2ccc3c(/C=C/c4ccccc4)n[nH]c3c2)c1`, the inhibition at 0.01 µM was 21%. Next, `O=C1NCC(C(=O)Nc2cccc(Nc3ccc4c(/C=C/c5ccccc5)n[nH]c4c3)c2)N1` (configuration not stated): 7%; `CC(C)CC(O)C(=O)Nc1cccc(Nc2ccc3c(/C=C/c4ccccc4)n[nH]c3c2)c1` (configuration not stated): 25%. Under `CCNc1ccccc1C(=O)Nc1cccc(Oc2ccc3c(/C=C/c4ccccc4)n[nH]c3c2)c1` stands 85%; under `CC(C)=NOC(C)C(=O)Nc1cccc(Nc2ccc3c(/C=C/c4ccccc4)n[nH]c3c2)c1` (configuration not stated), -1%; under `CCC(C(=O)Nc1cccc(Oc2ccc3c(/C=C/c4ccccc4)n[nH]c3c2)c1)c1ccccc1C` (configuration not stated), 46%.

In the case of `O=C(Nc1cccc(Oc2ccc3c(/C=C/c4ccccc4)n[nH]c3c2)c1)c1cc(=O)cco1`, the inhibition at 0.01 µM was 18%. Next, `O=C(c1cccc(NC(=O)C2CC3C=CC2CC3)c1)c1ccc2c(/C=C/c3ccccc3)n[nH]c2c1` (configuration not stated): 42%; `Cc1ccc(C2(C(=O)Nc3cccc(Oc4ccc5c(/C=C/c6ccccc6)n[nH]c5c4)c3)CC2)cc1`: 4%. Next, `CC(=O)NC(C)(C)CC(=O)Nc1cccc(Nc2ccc3c(/C=C/c4ccccc4)n[nH]c3c2)c1`: -9%; `CC(=O)N1CCC[C@@H]1C(=O)Nc1cccc(C(=O)c2ccc3c(/C=C/c4ccccc4)n[nH]c3c2)c1`: 37%.

As for `O=C(Nc1cccc(Oc2ccc3c(/C=C/c4ccccc4)n[nH]c3c2)c1)C1=C[C@@H](O)[C@@H](O)[C@H](O)C1`, the inhibition at 0.01 µM came to 25%. Under `CCCN(CCC)CC(=O)Nc1cccc(Oc2ccc3c(/C=C/c4ccccc4)n[nH]c3c2)c1` stands 25%; under `C[C@@]12C[C@H]3C[C@H]1C[C@@]3(C(=O)Nc1cccc(Oc3ccc4c(/C=C/c5ccccc5)n[nH]c4c3)c1)C2`, 30%. Under `O=C(c1cccc(NC(=O)[C@H]2CCC[C@H]2O)c1)c1ccc2c(/C=C/c3ccccc3)n[nH]c2c1` stands 39%; under `CC(=O)N1CCCC1C(=O)Nc1cccc(C(=O)c2ccc3c(/C=C/c4ccccc4)n[nH]c3c2)c1` (configuration not stated), 10%; under `O=C1CC[C@H](C(=O)Nc2cccc(Nc3ccc4c(/C=C/c5ccccc5)n[nH]c4c3)c2)N1`, 20%.

For `Cc1ccc(CCC(=O)Nc2cccc(Oc3ccc4c(/C=C/c5ccccc5)n[nH]c4c3)c2)cc1`, the inhibition at 0.01 µM worked out at 70%.

In the case of `CC(C)c1ccccc1C(=O)Nc1cccc(Nc2ccc3c(/C=C/c4ccccc4)n[nH]c3c2)c1`, the inhibition at 0.01 µM was 79%. Regarding `CC(C)(C)[C@@H](O)C(=O)Nc1cccc(Oc2ccc3c(/C=C/c4ccccc4)n[nH]c3c2)c1`, the inhibition at 0.01 µM stood at 30%.

On to `CC(=O)N1CCCC1C(=O)Nc1cccc(Nc2ccc3c(/C=C/c4ccccc4)n[nH]c3c2)c1` (configuration not stated), for which the inhibition at 0.01 µM is -2%. Next, `CO[C@H](C(=O)Nc1cccc(Nc2ccc3c(/C=C/c4ccccc4)n[nH]c3c2)c1)c1ccccc1`: 80%; `O=C(c1cccc(NC(=O)c2cccc3cc[nH]c23)c1)c1ccc2c(/C=C/c3ccccc3)n[nH]c2c1`: 58%; `CC(C)C(=O)Nc1cccc(Nc2ccc3c(/C=C/c4ccccc4)n[nH]c3c2)c1`: 24%.

On to `CCCN(CCC)CC(=O)Nc1cccc(Nc2ccc3c(/C=C/c4ccccc4)n[nH]c3c2)c1`, for which the inhibition at 0.01 µM came to 17%. Under `O=C(Cn1ccc2ccccc21)Nc1cccc(C(=O)c2ccc3c(/C=C/c4ccccc4)n[nH]c3c2)c1` stands -11%; under `CC(=O)N1CCC(C(=O)Nc2cccc(Oc3ccc4c(/C=C/c5ccccc5)n[nH]c4c3)c2)CC1`, 42%; under `O=C(c1cccc(NC(=O)C(O)c2ccccc2)c1)c1ccc2c(/C=C/c3ccccc3)n[nH]c2c1` (configuration not stated), 3%. Next, `COC1CCCC(C(=O)Nc2cccc(C(=O)c3ccc4c(/C=C/c5ccccc5)n[nH]c4c3)c2)C1` (configuration not stated): 30%. Next, `Cn1cnc(CC(=O)Nc2cccc(C(=O)c3ccc4c(/C=C/c5ccccc5)n[nH]c4c3)c2)c1`: 31%. For the molecule `O=C(Cc1c(F)cccc1F)Nc1cccc(C(=O)c2ccc3c(/C=C/c4ccccc4)n[nH]c3c2)c1`, the inhibition at 0.01 µM stood at 81%.
